Measured values from patent publication US20230263729A1, “POLY(ETHYLENE GLYCOL)-BLOCK-POLY(PROPYLENE SULFIDE) NANOCARRIER PLATFORM FOR ENHANCED EFFICACY OF IMMUNOSUPPRESSIVE AGENTS” (Northwestern University, priority 2019, published 2023).

How the values were obtained:
[1] = system: genes associated with rapamycin side effects; assay: Single cell RNA sequencing of spleen macrophages and CD4+ regulatory T cells; format: in vivo, C57BL/6J mice; conditions: 1 mg/kg s.c. 11 days
Procedure: Single Cell RNA Sequencing—Healthy C57BL/6J mice were subjected to a “standard dosage regime.” Animals were injected subcutaneously for 11 days with rapamycin (in 0.2% CMC) or rPS at a dose of 1 mg/kg. Equivalent dose of 1×PBS or PS were injected as controls. After 11 days, the mice were sacrificed, and the liver and spleen were excised. The organs were processed as was done for flow cytometry. CD4+ regulatory T cells and macrophages were isolated using magnetic sorting (MojoSort; BioLegend). Briefly, cells were first incubated in a cocktail of PE anti-mouse CD169 and PE anti-mouse F4/80 antibodies (BioLegend). After washing, incubation in anti-PE nanobeads (BioLegend) occurred. Macrophages were magnetically sorted from non-macrophages. The non-macrophages cell fraction was then incubated in mouse CD4+ T cell isolation biotin-antibody cocktail (BioLegend) and sorted. The CD4+ T cell fraction was then incubated in APC anti-mouse CD25 antibody (BioLegend), followed by washing, incubation in anti-APC nanobeads (BioLegend) and sorting. RNA was isolated from separated macrophages and CD4+ regulatory T cells using R-Neasy Mini Kit with DNAse digestion (Qiagen), Samples were frozen and shipped to Admera Health where they underwent library preparation using the Lexogen 3′ mRNA-Seq Library Prep Kit FWD HT (Lexogen) and were sequenced on an Illumina sequencer (HiSeq 2500 2×150 bp). For each pair, Read 2 was discarded and only Read 1 was used for downstream data analysis. Sequencing quality was analyzed with FastQC v0.11.5^47 and reads were trimmed and filtered with Trimmomatic v0.3948. One sample from the spleen T cell PBS treatment group and one sample from the spleen T cell rapamycin treatment group were discarded due to low sequencing quality. Reads were aligned with STAR v2.6.0a 49 to the GRCm38.p6 mouse reference genome primary assembly using the GRCm38.p6 mouse reference primary comprehensive gene annotation (https://www.gencodegenes.org/mouse/). Quantification and differential expression was performed with Cuffdiff from Cufflinks v2.2.150-52 again using the GRCm38.p6 mouse reference primary comprehensive gene annotation and a 0.05 FDR. Detailed settings for each software are included in Table S1.

allogeneic islet graft = assay: Intraportal fully-MHC mismatched allogeneic islet transplantation; format: in vivo, C57BL/6J mice; conditions: standard dosage: 11 daily injections, 1 mg rapamycin per kg
Procedure: Allogeneic Islet Transplantation—Diabetes was induced via streptozotocin (IP; 190 mg/kg) injection five days prior to transplantation and confirmed via hyperglycemia (blood glucose>400 mg/dl). Starting the day prior to transplantation, mice were injected with PBS, PS, rapamycin, or rPS (N=3 per group) at 1 mg/kg (or equivalent) in accordance with a standard dosage (11 doses, given daily) or a low dosage (6 doses, given every 3rd day). On the day of transplantation, islets were isolated from Balb/c mice via common bile duct cannulation and pancreas distension with collagenase. Islets isolated from two donors (˜200 mouse islets, ˜175 IEQ) were transplanted to C57B6/J recipients via the portal vein. Body weight and blood glucose concentration were monitored closely for 100 days post-transplantation. Intraperitoneal glucose tolerance test (IPGTT) was performed one-month post transplantation. The animals were fasted for 16 hours before being injected intraperitoneally with 2 g dextrose (200 g/L; Gibco) per kg body weight. Blood glucose concentrations were measured at 0, 15, 30, 60- and 120-minutes post-injection.

red blood cells = conditions: in vivo; cited from earlier work
[2] = in vivo; cited from earlier work
[3] = system: hair follicles at injection site; assay: Alopecia assessment (dorsal photos, H&E histology); format: in vivo, C57BL/6J mice
From the text: Alopecia Assessment—Dorsal photos were taken weekly to assess for alopecia. At 100-days post-transplantation, the mice were euthanized and skin samples were excised in the dorsal region at the subcutaneous injection site. Skin samples were placed in cassettes, fixed in 4% paraformaldehyde, and embedded in paraffin. Tissue blocks were sectioned at a thickness of […] and stained with hematoxylin and eosin (H&E). Digital images were taken on a Nikon microscope.

Which results are given for `CO[C@H]1C[C@@H]2CC[C@@H](C)[C@@](O)(O2)C(=O)C(=O)N2CCCC[C@H]2C(=O)O[C@H]([C@H](C)C[C@@H]2CC[C@@H](O)[C@H](OC)C2)CC(=O)[C@H](C)/C=C(\C)[C@@H](O)[C@@H](OC)C(=O)[C@H](C)C[C@H](C)/C=C/C=C/C=C/1C` [rapamycin]?
ACAA1 Fold Change ([1]; Spleen CD4+ Regulatory T Cells): −3.833; CD79A Fold Change ([1]; Spleen CD4+ Regulatory T Cells): −24; CRKL Fold Change ([1]; Spleen CD4+ Regulatory T Cells): 7.387; MZB1 Fold Change ([1]; Spleen CD4+ Regulatory T Cells): −24; PIK3R1 Fold Change ([1]; Spleen CD4+ Regulatory T Cells): −12; IGF1 Fold Change ([1]; Spleen Macrophages): −9.108; MGAT1 Fold Change ([1]; Spleen Macrophages): 5.0747; ZDHHC3 Fold Change ([1]; Spleen Macrophages): −8.143; mice remaining normoglycemic 100 days post transplantation (allogeneic islet graft): 71%; partition into red blood cells (red blood cells): 95%; patients impacted by alopecia [2]: approximately 10%; hair follicles, histological analysis ([3]; low dosage): some mature follicles present; injection site alopecia ([3]; low dosage): alopecia was reduced; injection site alopecia ([3]; mice treated with free rapamycin): experienced injection site alopecia; hair follicles, histological analysis ([3]; standard dosage): Only immature follicles
